Experimental data from ChEMBL document CHEMBL4808219, “Exploration of Benzo[b]carbazole-6,11-diones as anticancer agents: Synthesis and studies of hTopoIIα inhibition and apoptotic effects” (Bioorg Med Chem Lett, 2021).
Calls of active or inactive are those of the source. No cut-off for these calls is given here.

Columns and labels:
[1] = system: MDA-MB-231; experiment: Cytotoxicity against human MDA-MB-231 cells assessed as apoptotic nuclei at 3 uM by DAPI staining based fluorescence microscopic analysis (reference value: 4.17 to 6.67%); assay type: functional
[2] = system: MCF7; experiment: Cytotoxicity against human MCF7 cells assessed as reduction in cell viability incubated for 48 hrs by MTT assay; assay type: functional, cell-based; settings: Homo sapiens, MCF7, 48 h; read-out: IC50
[3] = system: MDA-MB-231; experiment: Induction of apoptosis in human MDA-MB-231 cells assessed as upregulation of Bax level by measuring fold change in Bax expression by Western blot analysis relative to control; assay type: functional
[4] = system: MDA-MB-231; experiment: Cytotoxicity against human MDA-MB-231 cells assessed as normal nuclei at 2 uM by DAPI staining based fluorescence microscopic analysis (reference value: 85.71 to 95.83%); assay type: functional
[5] = system: MDA-MB-231; experiment: Cytotoxicity against human MDA-MB-231 cells assessed as normal nuclei at 3 uM by DAPI staining based fluorescence microscopic analysis (reference value: 93.33 to 95.83%); assay type: functional
[6] = system: MDA-MB-231; experiment: Induction of apoptosis in human MDA-MB-231cells assessed as downregulation of Bcl-xl level by measuring fold change in Bcl-xl expression by Western blot analysis relative to control; assay type: functional
[7] = system: MDA-MB-231; experiment: Cytotoxicity against human MDA-MB-231 cells assessed as normal nuclei at 4 uM by DAPI staining based fluorescence microscopic analysis (reference value: 93.33 to 95.83%); assay type: functional
[8] = system: MDA-MB-231; experiment: Cytotoxicity against human MDA-MB-231 cells assessed as apoptotic nuclei at 4 uM by DAPI staining based fluorescence microscopic analysis (reference value: 4.17 to 6.67%); assay type: functional
[9] = system: MDA-MB-231; experiment: Cytotoxicity against human MDA-MB-231 cells assessed as apoptotic nuclei at 5 uM by DAPI staining based fluorescence microscopic analysis (reference value: 4.17 to 6.67%); assay type: functional
[10] = system: MDA-MB-231; experiment: Cytotoxicity against human MDA-MB-231 cells assessed as reduction in cell survival by clonogenic assay; assay type: functional, cell-based
[11] = system: MDA-MB-231; experiment: Cytotoxicity against human MDA-MB-231 cells assessed as normal nuclei at 1 uM by DAPI staining based fluorescence microscopic analysis (reference value: 85.71 to 95.83%); assay type: functional
[12] = system: MDA-MB-231; experiment: Cytotoxicity against human MDA-MB-231 cells assessed as normal nuclei at 5 uM by DAPI staining based fluorescence microscopic analysis (reference value: 93.33 to 95.83%); assay type: functional
[13] = system: MDA-MB-231; experiment: Genotoxicity in human MDA-MB-231 cells assessed as induction of DNA damage at 3 uM incubated for 24 hrs by comet assay; assay type: functional, cell-based
[14] = system: MDA-MB-231; experiment: Cytotoxicity against human MDA-MB-231 cells assessed as apoptotic nuclei at 1 uM by DAPI staining based fluorescence microscopic analysis (reference value: 4.17 to 14.29%); assay type: functional
[15] = system: MDA-MB-231; experiment: Cytotoxicity against human MDA-MB-231 cells assessed as apoptotic nuclei at 2 uM by DAPI staining based fluorescence microscopic analysis (reference value: 4.17 to 14.29%); assay type: functional
[16] = system: MCF-10A; experiment: Cytotoxicity against human MCF-10A cells; assay type: cell-based
[17] = Cytotoxicity against human H357 cells assessed as reduction in cell viability incubated for 48 hrs by MTT assay; assay type: functional, cell-based; settings: Homo sapiens, H357, 48 h; read-out: IC50
[18] = system: MDA-MB-231; experiment: Cytotoxicity against human MDA-MB-231 cells assessed as reduction in cell viability incubated for 48 hrs by MTT assay; assay type: functional, cell-based; settings: Homo sapiens, MDA-MB-231, 48 h; read-out: IC50
[19] = system: MDA-MB-231; experiment: Cytotoxicity against human MDA-MB-231 cells assessed as increase in deformation and shrinkage of nuclei by DAPI staining-based fluorescence microscopic analysis; assay type: functional, cell-based; settings: dose 0.5-2.5 µM
[20] = system: HEK-293T; experiment: Cytotoxicity against human HEK293T cells assessed as reduction in cell viability incubated for 48 hrs by MTT assay; assay type: cell-based
[21] = system: MDA-MB-231; experiment: Induction of apoptosis in human MDA-MB-231cells as increase in cleaved PARP1 level by measuring fold change in cleaved PARP1 expression by Western blot analysis relative to control; assay type: functional

SMILES | Activity [1] | IC50 [2] | fold change (FC) [3] | Activity [4] | Activity [5] | fold change (FC) [6] | Activity [7] | Activity [8] | Activity [9] | IC50 [10] | Activity [11] | Activity [12] | Activity [13] | Activity [14] | Activity [15] | IC50 [16] | IC50 [17] | IC50 [18] | Activity [19] | IC50 [20] | other results
O=C1c2cccc(O)c2C(=O)c2c1[nH]c1ccccc21 | 48.48% | 3 µM | 2.2 | 63.64% | 51.52% | 0.2 | 44.44% | 55.56% | 73.33% | 2.7 µM | 74.07% | 26.67% | Active | 25.93% | 36.36% | 105 µM | 3.6 µM | 3.2 µM | Dose-Dependent Effect | 4 µM | fold change (FC) [21]: 1
O=C1C=C(Nc2cccc3ccccc23)C(=O)c2ccccc21 | 55.56% | 3.1 µM | 2.3 | 71.43% | 44.44% | 0.4 | 25.64% | 74.36% | 88.89% | 2.4 µM | 88.1% | 11.11% | Active | 11.9% | 28.57% | 101 µM | 5.8 µM | 3.2 µM | Dose-Dependent Effect | 5.6 µM | fold change (FC) [21]: 0.8
